This note sets out measurements from ChEMBL document CHEMBL2440114, “Methanolysis of triterpenoid saponin from Ardisia gigantifolia stapf. and structure-activity relationship study against cancer cells” (Bioorg Med Chem Lett, 2013).

One may read the IC50 as the concentration that gives 50% inhibition. Low values mean higher potency, high ones lower potency.

Structures are written as SMILES.

One experiment deals with HCT-8. The experiment can be described thus: Antiproliferative activity against human HCT8 cells by MTT assay. The format is functional, cell-based. (In general: Tetrazolium assays rely on reduction of a dye to a coloured formazan, in cell work by metabolically active cells.)
Experiment [1] concerns Bel-7402. The experiment can be described thus: Antiproliferative activity against human Bel7402 cells by MTT assay. The format is functional, cell-based.
The subject of a further experiment is A549. The experiment can be described thus: Antiproliferative activity against human A549 cells by MTT assay. The experiment is classed as functional, cell-based.
Experiment [2] deals with Bel-7402. The experiment can be described thus: Cell cycle arrest in human Bel7402 cells assessed as accumulation in G2/M phase (reference value: 43.75+/- 1.1 %). The format is functional.
Experiment [3] relates to Bel-7402. Description: Cell cycle arrest in human Bel7402 cells assessed as accumulation in G1 phase (reference value: 37.6+/- 1.4 %). The format is functional.
Experiment [4] relates to Bel-7402. The experiment can be described thus: Antiproliferative activity against human Bel7402 cells after 12 to 72 hrs by MTT assay. The experiment is classed as functional, cell-based.
The subject of experiment [5] is Bel-7402. The experiment can be described thus: Antiproliferative activity against human Bel7402 cells at 0.5 to 20 uM by MTT assay. Particulars: TDE = time-dependent effect. The experiment is classed as functional, cell-based.
Another experiment deals with EJ. Description: Cytotoxicity against human EJ cells. The experiment is classed as functional, cell-based.
Another experiment relates to HepG2. Description: Cytotoxicity against human HepG2 cells. The experiment is classed as functional, cell-based.
The nature of experiment [6]: Cytotoxicity against human […] cells. The format is functional, cell-based.
The next experiment deals with HeLa. The experiment can be described thus: Cytotoxicity against human HeLa cells. The format is functional, cell-based.

For `CCCCO[C@H]1OC[C@]23CC[C@@]1(C)C[C@H]2C1=CC[C@@H]2[C@@]4(C)CC[C@H](O[C@@H]5OC[C@H](O[C@@H]6O[C@H](CO)[C@@H](O)[C@H](O)[C@H]6O)[C@H](O)[C@H]5O[C@@H]5O[C@H](CO)[C@@H](O)[C@H](O)[C@H]5O)C(C)(C)[C@@H]4CC[C@@]2(C)[C@]1(C)C[C@H]3O`, the IC50 in the experiment with HCT-8, in the experiment on Bel-7402 [1] and in the experiment with A549 was more than 100 µM throughout.

For `CCCCO[C@@H]1OC[C@]23CC[C@@]1(C)C[C@H]2C1=CC[C@@H]2[C@@]4(C)CC[C@H](O)C(C)(C)[C@@H]4CC[C@@]2(C)[C@]1(C)C[C@H]3O`, the IC50 in the experiment on HCT-8 is more than 100 µM; in the experiment with Bel-7402 [1], 11.6 µM; with A549, more than 100 µM.

Regarding `C[C@@H]1O[C@@H](O[C@H]2[C@H](O)[C@@H](CO)O[C@@H](O[C@H]3CO[C@@H](O[C@H]4CC[C@]5(C)[C@H]6CC[C@]78OC[C@@]9(CC[C@](C)(C=O)C[C@H]97)[C@H](O)C[C@@]8(C)[C@]6(C)CC[C@H]5C4(C)C)[C@H](O[C@@H]4O[C@H](CO)[C@@H](O)[C@H](O)[C@H]4O)[C@H]3O)[C@@H]2O[C@@H]2OC[C@@H](O)[C@H](O[C@@H]3O[C@H](CO)[C@@H](O)[C@H](O)[C@H]3O)[C@H]2O)[C@H](O)[C@H](O)[C@H]1O`, the IC50 was 2 µM in the experiment on HCT-8, 3.2 µM in the experiment on Bel-7402 [1] and 3.2 µM in the experiment with A549.

In the case of `C[C@@H]1O[C@@H](O[C@H]2[C@H](O)[C@@H](CO)O[C@@H](O[C@H]3CO[C@@H](O[C@H]4CC[C@]5(C)[C@H]6CC[C@]78OC[C@@]9(CCC(C)(C)C[C@H]97)[C@H](O)C[C@@]8(C)[C@]6(C)CC[C@H]5C4(C)C)[C@H](O[C@@H]4O[C@H](CO)[C@@H](O)[C@H](O)[C@H]4O)[C@H]3O)[C@@H]2O[C@@H]2OC[C@@H](O)[C@H](O[C@@H]3O[C@H](CO)[C@@H](O)[C@H](O)[C@H]3O)[C@H]2O)[C@H](O)[C@H](O)[C@H]1O`, the Activity was 59.94% in the experiment on Bel-7402 [2], 40.86% in the experiment with Bel-7402 [3], “Dose-dependent effect” with Bel-7402 [4] and “tde” with Bel-7402 [5]. Further, the half-inhibitory concentration (IC50) in the experiment on HCT-8 amounted to 10.1 µM; with Bel-7402 [1], 7.83 µM; in the experiment with A549 it was 8.15 µM.

For the molecule `CC(=O)OC[C@H]1O[C@@H](O[C@H]2[C@H](O[C@H]3CC[C@]4(C)[C@H]5CC[C@]67OC[C@@]8(CC[C@](C)(C=O)C[C@H]86)[C@H](O)C[C@@]7(C)[C@]5(C)CC[C@H]4C3(C)C)OC[C@H](O[C@@H]3O[C@H](CO)[C@@H](O)[C@H](O[C@@H]4O[C@@H](C)[C@H](O)[C@@H](O)[C@H]4O)[C@H]3O[C@@H]3OC[C@@H](O)[C@H](O)[C@H]3O)[C@@H]2O)[C@H](O)[C@@H](O)[C@@H]1O`, the figures for the IC50 with HCT-8, in the experiment with Bel-7402 [1] and with A549 were 4.1 µM, 7.76 µM and 7.52 µM, respectively.

With `C[C@@H]1O[C@@H](O[C@H]2[C@H](O)[C@@H](CO)O[C@@H](O[C@H]3CO[C@@H](O[C@H]4CC[C@]5(C)[C@H]6CC[C@]78OC[C@@]9(CC[C@](C)(C=O)C[C@H]97)[C@H](O)C[C@@]8(C)[C@]6(C)CC[C@H]5C4(C)C)[C@H](O[C@@H]4O[C@H](CO)[C@@H](O)[C@H](O)[C@H]4O)[C@H]3O)[C@@H]2O[C@@H]2OC[C@@H](O)[C@H](O)[C@H]2O)[C@H](O)[C@H](O)[C@H]1O`, the IC50 in the experiment on EJ was 2 µM; with HepG2, 1.9 µM; in experiment [6], 2.1 µM; with HeLa, 1.8 µM; in the experiment on HCT-8 it was more than 100 µM; with Bel-7402 [1], 1.58 µM. In addition, the 50% inhibitory concentration (IC50) in the experiment with A549 is more than 100 µM.

As for `CC1(C)CC[C@]23CO[C@@]4(CC[C@@H]5[C@@]6(C)CC[C@H](O[C@@H]7OC[C@H](O[C@@H]8O[C@H](CO)[C@@H](O)[C@H](O)[C@H]8O[C@@H]8OC[C@@H](O)[C@H](O)[C@H]8O)[C@H](O)[C@H]7O[C@@H]7O[C@H](CO)[C@@H](O)[C@H](O)[C@H]7O)C(C)(C)[C@@H]6CC[C@@]5(C)[C@]4(C)C[C@H]2O)[C@@H]3C1` [LYSIKOKIANOSIDE 1], the IC50 amounted to 10.1 µM in the experiment with HCT-8, 6.77 µM in the experiment with Bel-7402 [1] and 4.37 µM in the experiment with A549.

As for `CCCCO[C@@H]1OC[C@]23CC[C@@]1(C)C[C@H]2C1=CC[C@@H]2[C@@]4(C)CC[C@H](O[C@@H]5OC[C@H](O[C@@H]6O[C@H](CO)[C@@H](O)[C@H](O)[C@H]6O)[C@H](O)[C@H]5O[C@@H]5O[C@H](CO)[C@@H](O)[C@H](O)[C@H]5O)C(C)(C)[C@@H]4CC[C@@]2(C)[C@]1(C)C[C@H]3O`, the IC50 is more than 100 µM in the experiment with HCT-8, 7.34 µM in the experiment with Bel-7402 [1] and 10.6 µM in the experiment on A549.

`CC(=O)OC[C@@]1(C)CC[C@]23CO[C@@]4(CC[C@@H]5[C@@]6(C)CC[C@H](O[C@@H]7OC[C@H](O[C@@H]8O[C@H](CO)[C@@H](O)[C@H](O[C@@H]9O[C@@H](C)[C@H](O)[C@@H](O)[C@H]9O)[C@H]8O[C@@H]8OC[C@@H](O)[C@H](O)[C@H]8O)[C@H](O)[C@H]7O[C@@H]7O[C@H](CO)[C@@H](O)[C@H](O)[C@H]7O)C(C)(C)[C@@H]6CC[C@@]5(C)[C@]4(C)C[C@H]2O)[C@@H]3C1`: the IC50 in the experiment on HCT-8 is more than 100 µM; in the experiment on Bel-7402 [1], more than 100 µM; in the experiment on A549, 59.7 µM.

Take `O=c1[nH]cc(F)c(=O)[nH]1` [FLUOROURACIL]: the IC50 in the experiment with HCT-8 was found to be 6.92 µM; in the experiment on Bel-7402 [1], 8.3 µM.

`CC(=O)OC[C@@]1(C)CC[C@]23CO[C@@]4(CC[C@@H]5[C@@]6(C)CC[C@H](O[C@@H]7OC[C@H](O[C@@H]8O[C@H](CO)[C@@H](O)[C@H](O[C@@H]9O[C@@H](C)[C@H](O)[C@@H](O)[C@H]9O)[C@H]8O[C@@H]8OC[C@@H](O)[C@H](O[C@@H]9O[C@H](CO)[C@@H](O)[C@H](O)[C@H]9O)[C@H]8O)[C@H](O)[C@H]7O[C@@H]7O[C@H](CO)[C@@H](O)[C@H](O)[C@H]7O)C(C)(C)[C@@H]6CC[C@@]5(C)[C@]4(C)C[C@H]2O)[C@@H]3C1`: the results for the IC50 in the experiment on HCT-8, in the experiment with Bel-7402 [1] and with A549 were 5.73 µM, 2.71 µM and 6.33 µM, respectively.

With `CCCCO[C@H]1OC[C@]23CC[C@@]1(C)C[C@H]2C1=CC[C@@H]2[C@@]4(C)CC[C@H](O)C(C)(C)[C@@H]4CC[C@@]2(C)[C@]1(C)C[C@H]3O`, the 50% inhibitory concentration (IC50) in the experiment with HCT-8 was more than 100 µM; in the experiment with Bel-7402 [1], 53.1 µM; in the experiment with A549, 44.3 µM.

As to `C[C@@H]1O[C@@H](O[C@H]2[C@H](O)[C@@H](CO)O[C@@H](O[C@H]3CO[C@@H](O[C@H]4CC[C@]5(C)[C@H]6CC[C@]78OC[C@@]9(CC[C@](C)(CO)C[C@H]97)[C@H](O)C[C@@]8(C)[C@]6(C)CC[C@H]5C4(C)C)[C@H](O[C@@H]4O[C@H](CO)[C@@H](O)[C@H](O)[C@H]4O)[C@H]3O)[C@@H]2O[C@@H]2OC[C@@H](O)[C@H](O)[C@H]2O)[C@H](O)[C@H](O)[C@H]1O`, the IC50 was 8.63 µM with HCT-8, more than 100 µM in the experiment on Bel-7402 [1] and 31 µM in the experiment on A549.

As for `C[C@@H]1O[C@@H](O[C@H]2[C@H](O)[C@@H](CO)O[C@@H](O[C@H]3CO[C@@H](O[C@H]4CC[C@]5(C)[C@H]6CC[C@]78OC[C@@]9(CC[C@](C)(CO)C[C@H]97)C(=O)C[C@@]8(C)[C@]6(C)CC[C@H]5C4(C)C)[C@H](O[C@@H]4O[C@H](CO)[C@@H](O)[C@H](O)[C@H]4O)[C@H]3O)[C@@H]2O[C@@H]2OC[C@@H](O)[C@H](O)[C@H]2O)[C@H](O)[C@H](O)[C@H]1O`, the values for the IC50 in the experiment on HCT-8, with Bel-7402 [1] and in the experiment with A549 were 3.41 µM, 3.6 µM and 3.77 µM, respectively.

Turning to `CC1(C)[C@@H](O[C@@H]2OC[C@H](O[C@@H]3O[C@H](CO)[C@@H](O)[C@H](O)[C@H]3O[C@@H]3OC[C@@H](O)[C@H](O)[C@H]3O)[C@H](O)[C@H]2O)CC[C@]2(C)[C@H]3CC[C@]45OC[C@@]6(CC[C@](C)(C=O)C[C@H]64)[C@H](O)C[C@@]5(C)[C@]3(C)CC[C@@H]12` [PRIMULANIN], the results for the IC50 in the experiment on HCT-8, with Bel-7402 [1] and in the experiment with A549 were 8.43 µM, 10.3 µM and 12 µM, respectively.

As to `C[C@@H]1O[C@@H](O[C@H]2[C@H](O)[C@@H](CO)O[C@@H](O[C@H]3CO[C@@H](O[C@H]4CC[C@]5(C)[C@H]6CC[C@]78OC[C@@]9(CC[C@](C)(C=O)C[C@H]97)C(=O)C[C@@]8(C)[C@]6(C)CC[C@H]5C4(C)C)[C@H](O)[C@H]3O)[C@@H]2O[C@@H]2OC[C@@H](O)[C@H](O)[C@H]2O)[C@H](O)[C@H](O)[C@H]1O`, the values for the IC50 in the experiment on HCT-8, in the experiment on Bel-7402 [1] and in the experiment on A549 were 7.73 µM, 6.9 µM and 10 µM, respectively.

As for `CC(=O)OC[C@H]1O[C@@H](O[C@H]2[C@H](O[C@H]3CC[C@]4(C)[C@H]5CC[C@]67OC[C@@]8(CCC(C)(C)C[C@H]86)[C@H](O)C[C@@]7(C)[C@]5(C)CC[C@H]4C3(C)C)OC[C@H](O[C@@H]3O[C@H](CO)[C@@H](O)[C@H](O[C@@H]4O[C@@H](C)[C@H](O)[C@@H](O)[C@H]4O)[C@H]3O[C@@H]3OC[C@@H](O)[C@H](O)[C@H]3O)[C@@H]2O)[C@H](O)[C@@H](O)[C@@H]1O`, the IC50 with HCT-8 came out at 9.28 µM; with Bel-7402 [1], 8.4 µM; with A549 it was 8.06 µM.
